Experimental data taken from US11084818B2 (HEPO PHARMACEUTICAL CO., LTD., priority 2016, dated 2021).
pEC50: −log10 of the molar value.

Legend:
[1] = biological target: T1, hTLR7 (Homo sapiens, UniProt Q9NYK1); assay: Activation activity test of hTLR7 (HEK-Blue hTLR7 cells, QUANTI-Blue OD650); type: cell-based; details: 24 hours incubation, read-out: TLR7 (EC50)
T1 construct: host or cells: HEK-Blue hTLR7 (HEK293-derived reporter line)
T1 sequence (Q9NYK1 27-1049): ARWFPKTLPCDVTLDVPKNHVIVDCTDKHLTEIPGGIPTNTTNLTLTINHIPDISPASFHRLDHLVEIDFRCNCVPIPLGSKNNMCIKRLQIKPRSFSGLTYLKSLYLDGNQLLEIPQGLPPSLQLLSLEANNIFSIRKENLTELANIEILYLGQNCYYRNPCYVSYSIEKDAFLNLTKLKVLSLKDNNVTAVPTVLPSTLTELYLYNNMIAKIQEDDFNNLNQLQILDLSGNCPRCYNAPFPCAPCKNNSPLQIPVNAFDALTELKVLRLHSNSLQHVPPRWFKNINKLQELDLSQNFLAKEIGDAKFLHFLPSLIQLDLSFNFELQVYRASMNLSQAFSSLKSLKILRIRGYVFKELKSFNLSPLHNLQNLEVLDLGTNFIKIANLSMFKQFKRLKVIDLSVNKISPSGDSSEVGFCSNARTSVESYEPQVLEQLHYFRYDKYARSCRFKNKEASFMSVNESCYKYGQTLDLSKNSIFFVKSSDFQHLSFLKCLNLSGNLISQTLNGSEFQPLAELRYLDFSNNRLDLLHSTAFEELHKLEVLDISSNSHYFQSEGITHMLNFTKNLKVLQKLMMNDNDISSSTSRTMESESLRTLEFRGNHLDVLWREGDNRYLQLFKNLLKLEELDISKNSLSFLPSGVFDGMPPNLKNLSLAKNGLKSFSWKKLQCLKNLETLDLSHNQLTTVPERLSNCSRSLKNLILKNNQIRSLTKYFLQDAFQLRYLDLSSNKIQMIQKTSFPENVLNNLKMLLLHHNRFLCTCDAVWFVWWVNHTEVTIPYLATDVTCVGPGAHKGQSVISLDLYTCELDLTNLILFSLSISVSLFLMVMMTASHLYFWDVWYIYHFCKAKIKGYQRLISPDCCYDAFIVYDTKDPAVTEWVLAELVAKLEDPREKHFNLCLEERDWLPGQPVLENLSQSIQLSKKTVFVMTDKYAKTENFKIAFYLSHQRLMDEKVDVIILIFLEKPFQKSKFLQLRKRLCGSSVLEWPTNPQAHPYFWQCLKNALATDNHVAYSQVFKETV
Protocol: (§1) Effect Example 1: Activation Activity Test of hTLR7 and hTLR8
(§2) Cell lines: HEK-Blue™ hTLR7 and HEK-Blue™ hTLR8 (InvivoGen Co.)
(§3) Primary reagents: QUANTI-Blue™ (InvivoGen) and ATPlite 1 Step (PerkinElmer)
(§4) Primary instruments: Automatic Liquid Handling Workstation (Labcyte, Model: Echo), Cell Counter (Countstar, IC1000) and Multifunctional Enzyme Marker (Molecular Device, Flexstation III).
(§5) 2.1 The tested compounds were formulated into a 60 mM concentrated stock solution in DMSO and stored in a nitrogen cabinet.
(§6) 2.3 The T150 cultured cells were taken out from the CO2 incubator and the cell culture supernatant was discarded. The cells were washed with PBS once, followed by addition of about 10 mL of the culture solution. The cells were dissociated by patting the cell culture flask, and gently blown to even by a pipette.
(§7) The cells were counted, and the cell suspension was adjusted to 200,000 cells/mL by the culture solution. Thereafter, 200 μL of diluted cells was added to each well in a 96-well plate containing the compound (40,000 cells/well).
(§8) 2.4 The compounds and cells were incubated in a 5% CO2 incubator at 37° C. for 24 hours.
(§9) 2.5 Compound activity assay: 20 μl of the cell supernatant of each well after induction was added to a cell culture plate containing 180 μL of reagent QUANTI-Blue™, and incubated at 37° C. for 1.5 hours. Thereafter, the optical density absorption (OD650) of each well at 650 nm was measured using a Multifunctional Enzyme Marker: Flexstation III.
(§10) 2.6 Compound Activity: OD650 values were analyzed using GraphPad Prism software and the dose-response curves for the compound were fitted to calculate the EC50 values of the compound.

[2] = biological target: T2, hTLR8 (Homo sapiens, UniProt Q9NR97); assay: Activation activity test of hTLR8 (HEK-Blue hTLR8 cells, QUANTI-Blue OD650); type: cell-based; details: HEK-Blue hTLR8 cells, 24 hours incubation; read-out: TLR8 (EC50)
T2 construct: host or cells: HEK-Blue hTLR8 (HEK293-derived reporter line)
T2 sequence (Q9NR97 27-1041): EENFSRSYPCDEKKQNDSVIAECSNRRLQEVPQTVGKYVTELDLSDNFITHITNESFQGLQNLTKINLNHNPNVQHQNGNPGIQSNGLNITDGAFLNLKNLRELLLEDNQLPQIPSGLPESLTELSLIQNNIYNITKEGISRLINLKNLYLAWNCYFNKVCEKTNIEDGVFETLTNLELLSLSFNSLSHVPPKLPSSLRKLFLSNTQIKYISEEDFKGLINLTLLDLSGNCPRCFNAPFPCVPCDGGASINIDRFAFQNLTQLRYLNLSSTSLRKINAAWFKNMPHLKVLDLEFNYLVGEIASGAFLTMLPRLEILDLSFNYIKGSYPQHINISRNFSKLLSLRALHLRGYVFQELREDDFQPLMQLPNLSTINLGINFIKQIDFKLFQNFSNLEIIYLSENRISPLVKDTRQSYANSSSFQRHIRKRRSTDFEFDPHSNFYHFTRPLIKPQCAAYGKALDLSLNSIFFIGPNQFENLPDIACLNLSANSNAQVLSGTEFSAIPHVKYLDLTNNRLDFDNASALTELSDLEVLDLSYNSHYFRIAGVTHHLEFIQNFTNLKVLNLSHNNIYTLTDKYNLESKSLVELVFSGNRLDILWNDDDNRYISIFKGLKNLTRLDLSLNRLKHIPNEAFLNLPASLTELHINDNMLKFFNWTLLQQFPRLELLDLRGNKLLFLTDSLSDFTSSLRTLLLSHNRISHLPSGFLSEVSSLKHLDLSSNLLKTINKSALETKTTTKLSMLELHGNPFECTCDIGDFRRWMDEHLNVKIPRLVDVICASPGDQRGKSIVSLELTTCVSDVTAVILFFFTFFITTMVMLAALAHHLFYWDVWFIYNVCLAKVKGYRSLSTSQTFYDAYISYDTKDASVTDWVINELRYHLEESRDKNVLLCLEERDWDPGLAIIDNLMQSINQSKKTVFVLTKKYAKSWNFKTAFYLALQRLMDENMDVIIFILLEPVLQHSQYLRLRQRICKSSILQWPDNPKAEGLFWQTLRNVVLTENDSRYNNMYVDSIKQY
Protocol: as §1, §2, §3, §4, §5, §6, §7, §8, §9, §10

O=c1[nH]c2cnc(OCCOCC(F)(F)F)nc2n1Cc1ccc(CN2CCCC2)cc1 [Example 48, 9-(4-(pyrrolidin-1-ylmethyl)benzyl)-2-(2-(2,2,2-trifluoroethoxy)ethoxy)-7,9-dihydro-8H-purin-8-one]
pEC50 [1]: 6.00 to 9.00 | pEC50 [2]: < 4.00

CCC(c1ccc(Cn2c(=O)[nH]c3cnc(OCCOC)nc32)cc1)N1CCCC1 (centres unmarked) [Example 17]
pEC50 [1]: 5.00 to 6.00 | pEC50 [2]: < 4.00

COCCOc1ncc2[nH]c(=O)n(Cc3ccc(CN4CCCC4)cc3)c2n1 [Example 1, 2-(2-methoxyethoxy)-9-(4-(pyrrolidin-1-ylmethyl)benzyl)-7,9-dihydro-8H-purin-8-one]
pEC50 [1]: 5.00 to 6.00 | pEC50 [2]: < 4.00

COCCOc1ncc2[nH]c(=O)n(Cc3cccc(CN4CCC[C@@H]4C(=O)OC)c3)c2n1 [Example 23, methyl (3-((2-(2-methoxyethoxy)-8-oxo-7,8-dihydro-9H-purin-9-yl)methyl)benzyl)-D-pyrrolidine-2-carboxylate]
pEC50 [1]: 4.00 to 5.00 | pEC50 [2]: < 4.00

COCCOc1ncc2[nH]c(=O)n(Cc3ccc(CN4CCCC4)cc3F)c2n1 [Example 63, 2-(2-methoxyethoxy)-9-(2-fluoro-4-(pyrrolidin-1-ylmethyl)benzyl)-7,9-dihydro-8H-purin-8-one]
pEC50 [1]: 5.00 to 6.00 | pEC50 [2]: < 4.00

COCCOc1ncc2[nH]c(=O)n(Cc3ccc(CCN4CCCC4)cc3)c2n1 [Example 68, 9-(4-(2-(pyrrolidin-1-yl)ethyl)benzyl)-2-(2-methoxyethoxy)-7,9-dihydro-8H-purin-8-one]
pEC50 [1]: 5.00 to 6.00 | pEC50 [2]: < 4.00

O=c1[nH]c2cnc(OCC3CCOCC3)nc2n1Cc1cccc(CN2CCCC2)c1 [Example 28, 9-(3-(pyrrolidin-1-ylmethyl)benzyl)-2-((tetrahydro-2H-pyran-4-yl)methoxy)-7,9-dihydro-8H-purin-8-one]
pEC50 [1]: < 4.00 | pEC50 [2]: < 4.00

COCCOc1ncc2[nH]c(=O)n(Cc3ccc(CN4CC[C@@H](F)C4)cc3)c2n1 [Example 5, (R)-9-(4-((3-fluoropyrrolidin-1-yl)methyl)benzyl)-2-(2-methoxyethoxy)-7,9-dihydro-8H-purin-8-one]
pEC50 [1]: 5.00 to 6.00 | pEC50 [2]: < 4.00

O=c1[nH]c2cnc(OCCO)nc2n1Cc1ccc(CN2CCCC2)cc1 [Example 38, 2-(2-hydroxyethoxy)-9-(4-(pyrrolidin-1-ylmethyl)benzyl)-7,9-dihydro-8H-purin-8-one]
pEC50 [1]: 4.00 to 5.00 | pEC50 [2]: < 4.00

COCCOc1nc(O)c2[nH]c(=O)n(Cc3ccc(CN4CCCC4)cc3)c2n1 [Example 69, 6-hydroxy-2-(2-methoxyethoxy)-9-(4-(pyrrolidin-1-ylmethyl)benzyl)-7,9-dihydro-8H-purin-8-one]
pEC50 [1]: 4.00 to 5.00 | pEC50 [2]: < 4.00

O=c1[nH]c2cnc(OCCOC(F)(F)F)nc2n1Cc1ccc(CN2CC=CC2)cc1 [Example 55]
pEC50 [1]: 6.00 to 9.00 | pEC50 [2]: < 4.00

COCCOc1ncc2[nH]c(=O)n(Cc3cccc(CN4CCCC4)c3)c2n1 [Example 18]
pEC50 [1]: 5.00 to 6.00 | pEC50 [2]: < 4.00

COCCOc1ncc2nc(C)n(Cc3ccc(CN4CCCC4)cc3)c2n1 [Example 59, 2-(2-methoxyethoxy)-8-methyl-9-(4-(pyrrolidin-1-ylmethyl)benzyl)-9H-purine]
pEC50 [1]: < 4.00 | pEC50 [2]: < 4.00

COCCOc1ncc2[nH]c(=S)n(Cc3ccc(CN4CCCC4)cc3)c2n1 [Example 60, 2-(2-methoxyethoxy)-9-(4-(pyrrolidin-1-ylmethyl)benzyl)-7,9-dihydro-8H-purin-8-thione]
pEC50 [1]: < 4.00 | pEC50 [2]: < 4.00

COCCOc1ncc2[nH]c(=O)n(Cc3ccc(CN4CCC5(CC4)COC5)cc3)c2n1 [Example 11, 9-(4-((2-oxa-7-azaspiro[3.5]nonan-7-yl)methyl)benzyl)-2-(2-methoxyethoxy)-7,9-dihydro-8H-purin-8-one]
pEC50 [1]: 5.00 to 6.00 | pEC50 [2]: < 4.00

COCCOc1ncc2[nH]c(=O)n(Cc3ccc(CN4CC[C@@H](O)C4)cc3)c2n1 [Example 6, (R)-9-(4-((3-hydroxypyrrolidin-1-yl)methyl)benzyl)-2-(2-methoxyethoxy)-7,9-dihydro-8H-purin-8-one]
pEC50 [1]: 4.00 to 5.00 | pEC50 [2]: < 4.00
